Assay results reported in ChEMBL document CHEMBL6109147, “Discovery of Potent STING Inhibitors Bearing a Difluorobenzodioxol Structural Motif as Potent Anti-Inflammatory Agents” (J Med Chem, 2025).
Active and inactive are the calls of the source. The rule behind the calls is not given here.

Tests used:
[1] = tested on: Mus musculus; assay: Anti-inflammatory activity against MSA-2 induced C57BL/6 mouse inflammation model assessed as inhibition of MSA-2 induced IP-10 level in kidney at 10 mg/kg, ip pre-treated for 1 hr followed by stimulated with MSA-2 for 4 hrs by ELISA; format: functional, organism-based; details: time 5.0 hrs
[2] = tested on: Stimulator of interferon genes protein (Homo sapiens), Q86WV6 [UNDEFINED MUTATION]; assay: Inhibition of human STING expressed in 293T-Dual-hSTING-293Q cells assessed as reduction in cGAMP-induced secreted luciferase reporter of interferon stimulated gene (ISG) measured after 24 hrs incubation; format: cell-based
[3] = tested on: Mus musculus; assay: Anti-inflammatory activity in TREX1 D18N mouse model assessed as reduction in Ifn-beta mRNA expression in kidney at 10 mg/kg, ip measured after 2 weeks; format: functional, organism-based
[4] = tested on: Stimulator of interferon genes protein (Homo sapiens), Q86WV6 [UNDEFINED MUTATION]; assay: Inhibition of human STING expressed in 293T-Dual-hSTING-H232 cells assessed as reduction in cGAMP-induced secreted luciferase reporter of interferon stimulated gene (ISG) measured after 24 hrs incubation; format: cell-based
[5] = tested on: Mus musculus; assay: Anti-inflammatory activity against Cisplatin induced C57BL/6 mouse kidney inflammation model assessed as suppression of Cisplatin induced Isg15 mRNA level in kidney at 5 mg/kg, ip treated for 3 days by real-time PCR analysis; format: functional, organism-based; details: time 3.0 day
[6] = tested on: Mus musculus; assay: Anti-inflammatory activity against MSA-2 induced C57BL/6 mouse inflammation model assessed as inhibition of MSA-2 induced IL-6 mRNA expression in kidney at 10 mg/kg, ip pre-treated for 1 hr followed by stimulated with MSA-2 for 4 hrs by real-time PCR analysis; format: functional, organism-based; details: time 5.0 hrs

Chain of Stimulator of interferon genes protein (Homo sapiens), Q86WV6 [UNDEFINED MUTATION] (Q86WV6 whole entry, looked up, stated change not applied): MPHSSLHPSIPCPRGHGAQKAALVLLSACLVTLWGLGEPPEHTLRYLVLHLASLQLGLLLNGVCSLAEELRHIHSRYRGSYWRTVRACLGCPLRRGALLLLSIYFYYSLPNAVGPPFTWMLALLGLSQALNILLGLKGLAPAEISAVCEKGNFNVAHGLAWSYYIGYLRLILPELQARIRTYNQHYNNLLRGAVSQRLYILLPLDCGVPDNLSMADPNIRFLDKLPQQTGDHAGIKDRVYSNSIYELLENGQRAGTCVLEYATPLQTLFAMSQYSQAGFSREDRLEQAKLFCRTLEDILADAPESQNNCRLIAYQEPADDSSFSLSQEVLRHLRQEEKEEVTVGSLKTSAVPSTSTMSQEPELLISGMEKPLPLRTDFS

inhibition [2]: Active | inhibition [4]: Active
Structure (SMILES): N#CC/C=C/c1ccc2[nH]cc(NC(=O)Nc3ccc4c(c3)OC(F)(F)O4)c2c1
inhibition [1]: Active | Activity [3]: Active | inhibition [5]: Active | inhibition [6]: Active
